Measured values from ChEMBL document CHEMBL1137403, “Discovery of 2-[4-{{2-(2S,5R)-2-cyano-5-ethynyl-1-pyrrolidinyl]-2-oxoethyl]amino]- 4-methyl-1-piperidinyl]-4-pyridinecarboxylic acid (ABT-279): a very potent, selective, effective, and well-tolerated inhibitor of dipeptidyl peptidase-IV, useful for the treatment of diabetes” (J Med Chem, 2006).

Columns and labels:
Dipeptidyl peptidase 9 = Dipeptidyl peptidase 9 (Homo sapiens, UniProt Q86TI2)
Dipeptidyl peptidase 8 = Dipeptidyl peptidase 8 (Homo sapiens, UniProt Q6V1X1)
Chain of Dipeptidyl peptidase 8 (Q6V1X1 whole entry): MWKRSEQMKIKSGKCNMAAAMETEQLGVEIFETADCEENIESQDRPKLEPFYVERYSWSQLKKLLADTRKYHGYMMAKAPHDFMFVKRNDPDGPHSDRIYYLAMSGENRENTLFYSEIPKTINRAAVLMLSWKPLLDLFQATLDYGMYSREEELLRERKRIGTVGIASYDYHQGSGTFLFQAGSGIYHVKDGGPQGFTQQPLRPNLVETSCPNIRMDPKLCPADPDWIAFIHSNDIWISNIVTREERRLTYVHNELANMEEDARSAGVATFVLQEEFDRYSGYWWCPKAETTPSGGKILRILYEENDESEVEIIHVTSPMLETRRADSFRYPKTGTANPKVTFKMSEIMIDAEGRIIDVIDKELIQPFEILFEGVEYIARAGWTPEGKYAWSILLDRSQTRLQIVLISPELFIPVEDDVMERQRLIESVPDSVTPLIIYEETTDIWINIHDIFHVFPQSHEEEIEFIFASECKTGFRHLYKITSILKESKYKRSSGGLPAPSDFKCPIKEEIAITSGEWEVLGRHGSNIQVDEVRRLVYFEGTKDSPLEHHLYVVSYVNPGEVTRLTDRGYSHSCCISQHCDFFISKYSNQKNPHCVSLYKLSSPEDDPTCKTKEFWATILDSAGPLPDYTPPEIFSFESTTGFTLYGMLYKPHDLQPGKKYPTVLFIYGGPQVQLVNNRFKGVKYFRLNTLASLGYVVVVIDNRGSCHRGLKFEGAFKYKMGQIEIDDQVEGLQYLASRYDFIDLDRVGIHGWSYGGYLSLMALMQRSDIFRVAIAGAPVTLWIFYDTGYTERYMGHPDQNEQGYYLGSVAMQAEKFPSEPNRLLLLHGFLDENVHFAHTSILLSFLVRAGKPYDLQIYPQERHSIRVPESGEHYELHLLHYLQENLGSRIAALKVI

Chain of Dipeptidyl peptidase 9 (Q86TI2 whole entry): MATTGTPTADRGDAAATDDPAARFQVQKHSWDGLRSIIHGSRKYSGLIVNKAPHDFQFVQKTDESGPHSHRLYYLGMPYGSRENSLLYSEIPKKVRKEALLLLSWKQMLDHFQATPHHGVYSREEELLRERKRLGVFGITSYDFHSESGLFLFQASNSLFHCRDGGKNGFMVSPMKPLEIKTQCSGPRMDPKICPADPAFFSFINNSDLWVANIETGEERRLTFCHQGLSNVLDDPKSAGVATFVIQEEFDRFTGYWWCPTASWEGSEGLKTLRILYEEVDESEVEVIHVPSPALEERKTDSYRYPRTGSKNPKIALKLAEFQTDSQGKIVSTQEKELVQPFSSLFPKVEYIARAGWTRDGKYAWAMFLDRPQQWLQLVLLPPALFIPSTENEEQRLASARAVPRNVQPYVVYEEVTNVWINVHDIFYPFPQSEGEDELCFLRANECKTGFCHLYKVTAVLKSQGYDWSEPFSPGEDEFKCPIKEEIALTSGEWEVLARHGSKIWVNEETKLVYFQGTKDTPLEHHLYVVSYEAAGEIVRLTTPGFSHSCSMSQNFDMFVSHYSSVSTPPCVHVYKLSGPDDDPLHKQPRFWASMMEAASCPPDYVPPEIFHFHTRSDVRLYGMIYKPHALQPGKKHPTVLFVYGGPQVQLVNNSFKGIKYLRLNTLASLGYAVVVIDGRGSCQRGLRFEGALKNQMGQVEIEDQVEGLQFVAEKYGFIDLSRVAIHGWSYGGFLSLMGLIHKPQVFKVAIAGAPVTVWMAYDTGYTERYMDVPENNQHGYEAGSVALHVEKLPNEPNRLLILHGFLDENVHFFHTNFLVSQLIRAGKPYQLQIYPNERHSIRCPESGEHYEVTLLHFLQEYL

## C#C[C@H]1CC[C@@H](C#N)N1C(=O)CNC12CC3CC(CC(O)(C3)C1)C2
Dipeptidyl peptidase 9
  Ki: > 30 µM
Dipeptidyl peptidase 8
  Ki: > 30 µM
